Assay results published in article PMC7100484 (Pharmaceutical Research, 2020).

Experiments:
[1] = system: ZIKV; experiment: microbe, parasite or virus in culture; assay type: cell-based; settings: Zika virus
[2] = target: Human Viral RNA Sensor RIG-I (Homo sapiens, UniProt O95786); experiment: biochemical; assay type: binding
[3] = system: MCF7 Cells; experiment: cells; assay type: cell-based; settings: Homo sapiens, MCF7, read-out: IC50, inhibition of total fluorescent intensity/cell of Lysotracker Red
[4] = system: Mengo virus; settings: mouse, in vivo; cited from earlier work
[5] = system: Semliki Forest; settings: mouse, in vivo; cited from earlier work
[6] = system: Encephalomyocarditis virus (EMCV); settings: mouse, in vivo; cited from earlier work
[7] = system: Influenza B; settings: mouse, in vivo; cited from earlier work
[8] = system: Influenza A/Jap/305; settings: mouse, in vivo; cited from earlier work
[9] = system: Herpes simplex virus 1; settings: 250 mg/kg oral doses for 7 days; cited from earlier work
[10] = system: West Nile virus; settings: 10 mg/kg; cited from earlier work
[11] = system: EMCV; settings: cited from earlier work
[12] = system: respiratory tract infections; settings: in vivo; cited from earlier work
[13] = system: interferon; settings: in vivo, po; cited from earlier work
[14] = system: cytokines and chemokines; settings: mouse, in vivo; cited from earlier work
[15] = system: macrophages; settings: macrophages from naive BALB/c mice; cited from earlier work
[16] = system: mitochondrial potential; settings: cited from earlier work
[17] = system: fibroblasts; settings: cited from earlier work
[18] = not told; cited from earlier work
[19] = microsomes; cited from earlier work

Sequence of Human Viral RNA Sensor RIG-I (O95786 whole entry): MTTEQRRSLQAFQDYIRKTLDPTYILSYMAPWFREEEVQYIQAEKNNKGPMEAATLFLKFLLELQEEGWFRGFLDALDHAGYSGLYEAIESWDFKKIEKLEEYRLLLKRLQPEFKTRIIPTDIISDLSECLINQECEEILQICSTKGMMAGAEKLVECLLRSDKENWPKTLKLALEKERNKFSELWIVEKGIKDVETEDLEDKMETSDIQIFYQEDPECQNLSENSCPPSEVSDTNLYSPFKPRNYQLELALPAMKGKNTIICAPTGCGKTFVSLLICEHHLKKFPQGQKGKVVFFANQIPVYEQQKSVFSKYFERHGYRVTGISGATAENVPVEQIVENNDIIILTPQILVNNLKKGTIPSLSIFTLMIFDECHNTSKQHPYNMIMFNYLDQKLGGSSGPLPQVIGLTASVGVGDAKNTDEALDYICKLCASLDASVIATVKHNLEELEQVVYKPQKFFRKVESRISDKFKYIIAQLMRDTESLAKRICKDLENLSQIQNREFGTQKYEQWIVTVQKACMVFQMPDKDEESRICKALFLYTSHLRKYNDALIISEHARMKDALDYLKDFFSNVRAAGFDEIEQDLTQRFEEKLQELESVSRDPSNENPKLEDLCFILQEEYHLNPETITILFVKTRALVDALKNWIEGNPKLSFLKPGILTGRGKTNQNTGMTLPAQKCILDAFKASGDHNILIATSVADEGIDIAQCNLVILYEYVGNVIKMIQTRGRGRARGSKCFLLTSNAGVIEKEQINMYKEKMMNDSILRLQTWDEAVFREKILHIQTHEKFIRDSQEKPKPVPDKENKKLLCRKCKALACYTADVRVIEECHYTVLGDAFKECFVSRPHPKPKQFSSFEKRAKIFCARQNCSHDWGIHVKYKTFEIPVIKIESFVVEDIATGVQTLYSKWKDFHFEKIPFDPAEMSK

CCN(CC)CCOc1ccc2c(c1)C(=O)c1cc(OCCN(CC)CC)ccc1-2 [Tilorone, 2,7-Bis[2-(diethylamino)ethoxy]-9H-fluoren-9-one]
EC50 [1]: 5.2 µM | EC50 [2]: 500 µM | IC50 [3]: ~4 µM | survival in mice [4]: 80% survival in mice at 250 mg/kg single oral dose | survival in mice [5]: 100% survival in mice at 250 mg/kg single oral dose | survival in mice [6]: 80% survival in mice at 250 mg/kg single oral dose | survival in mice [7]: 50% survival in mice at 250 mg/kg single oral dose | survival in mice [8]: 30% survival in mice at 250 mg/kg single oral dose | survival in mice [9]: 45% survival in mice at 250 mg/kg oral doses for 7 days | lethality protection [10]: 46% lethality protection at 10 mg/kg | drop of virus titer [11]: 1 log drop of virus titer at 25 mg/ml in vitro | prophylactic efficacy [12]: 72% | interferon induction [13]: inducer of interferon | levels of IL-6, IL-10, IL-12 (p40), IL-12 (p70), IL-17, Eotaxin, MCP-1, MIP-1B and RANTES [14]: significantly higher levels | in vivo secretion of IL-6, TNF-a and IL-12 [15]: increase in vivo secretion | mitochondrial potential [16]: rapid increase | ATP-dependent acidification [17]: inhibited the ATP-dependent acidification | lysosomal pH [17]: increase lysosomal pH | secretion of precursor forms of lysosomal enzymes [17]: enhanced the secretion of precursor forms of lysosomal enzymes | storage of sulfated glycosaminoglycans [17]: induce the storage of sulfated glycosaminoglycans | permeability (in words) [18]: highly permeable | species-liver microsome stability relationship [19]: increased in the order of guinea pig, non-human primate, mouse, followed by human
